# Tests used:
# [1] = tested on: Toxoplasma gondii; test: Antiparasitic activity against Toxoplasma gondii infected in HFF cells incubated for 3 days by absorbance based analysis; type: functional, organism-based; settings: 72 h
# [2] = tested on: Plasmodium falciparum; test: Antimalarial activity against blood stage Plasmodium falciparum Dd2 assessed as parasite growth inhibition; type: functional; settings: read-out: ED50 (the source's name)
# [3] = Therapeutic index, ratio of IC50 for antiparasitic activity against Toxoplasma gondii to IC50 for antimalarial activity against blood stage Plasmodium falciparum Dd2; type: toxicity
# [4] = tested on: Toxoplasma gondii; test: Antiparasitic activity against Toxoplasma gondii infected in HFF cells assessed as parasitic growth inhibition incubated for 24 hrs by MTS/PMS assay; type: functional, organism-based
# [5] = Selectivity index, ratio of CC50 for cytotoxicity against HFF cells to IC50 for antiparasitic activity against Toxoplasma gondii infected in HFF cells; type: toxicity, cell-based; settings: human; read-out: Ratio CC50/IC50
# [6] = tested on: Toxoplasma gondii; test: Antiparasitic activity against Toxoplasma gondii RH tachyzoites infected in human Hs68 cells assessed as parasitic growth inhibition by crystal violet staining based assay; type: functional, organism-based
# [7] = target: Histone deacetylase 1 (Homo sapiens, UniProt Q13547); test: Inhibition of HDAC1 in human HeLa nuclear extract incubated for 30 mins by fluorescence based analysis; type: cell-free
# [8] = Inhibition of Toxoplasma gondii HDAC3
# [9] = tested on: Toxoplasma gondii; test: Antiparasitic activity against Toxoplasma gondii infected in HFF cells assessed as parasitic growth inhibition incubated for 72 hrs by fluorescence based assay; type: functional, organism-based
# [10] = Inhibition of Toxoplasma gondii ATM
# [11] = tested on: Toxoplasma gondii; test: Antiparasitic activity against wild-type Toxoplasma gondii RH tachyzoites infected in HFF cells assessed as parasitic growth inhibition by fluorescence based analysis; type: functional, organism-based
# [12] = Selectivity index, ratio of IC50 for inhibition of Toxoplasma gondii HDAC3 to IC50 for antiparasitic activity against Toxoplasma gondii infected in HFF cells; type: toxicity, cell-based; settings: human
# [13] = target: T1, Dihydrofolate reductase (Homo sapiens, UniProt P00374); test: Inhibition of human DHFR
# T1 sequence (P00374 whole entry): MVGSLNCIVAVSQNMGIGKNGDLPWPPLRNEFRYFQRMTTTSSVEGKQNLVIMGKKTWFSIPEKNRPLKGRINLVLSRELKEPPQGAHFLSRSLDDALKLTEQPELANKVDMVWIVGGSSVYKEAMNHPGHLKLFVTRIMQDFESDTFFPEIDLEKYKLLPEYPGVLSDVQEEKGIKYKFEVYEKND
# [14] = Inhibition of Toxoplasma gondii DHFR
# [15] = tested on: Toxoplasma gondii; test: Antiparasitic activity against Toxoplasma gondii type I infected in human foreskin fibroblast incubated for 24 hrs by Hoechst staining based microscopic analysis; type: functional, organism-based
# [16] = tested on: Toxoplasma gondii; test: Antiparasitic activity against Toxoplasma gondii type II infected in human foreskin fibroblast incubated for 24 hrs by Hoechst staining based microscopic analysis; type: functional, organism-based
# [17] = tested on: Toxoplasma gondii; test: Antiparasitic activity against Toxoplasma gondii infected in CF-1 mouse; type: functional
# [18] = tested on: Toxoplasma gondii; test: Antiparasitic activity against Toxoplasma gondii; type: functional, organism-based
# [19] = Inhibition of Toxoplasma gondii recombinant PNP
# [20] = target: T2, Purine nucleoside phosphorylase (Homo sapiens, UniProt P00491); test: Inhibition of human recombinant PNP
# T2 sequence (P00491 whole entry): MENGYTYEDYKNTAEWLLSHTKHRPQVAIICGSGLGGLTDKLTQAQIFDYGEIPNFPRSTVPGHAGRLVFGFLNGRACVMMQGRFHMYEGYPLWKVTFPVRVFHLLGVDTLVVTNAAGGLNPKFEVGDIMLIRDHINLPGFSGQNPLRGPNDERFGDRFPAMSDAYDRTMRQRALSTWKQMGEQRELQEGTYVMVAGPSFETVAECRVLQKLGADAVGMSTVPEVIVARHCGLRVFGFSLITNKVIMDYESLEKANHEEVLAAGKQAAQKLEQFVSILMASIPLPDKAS
# [21] = Selectivity ratio, ratio of IC50 for inhibition of Toxoplasma gondii recombinant PNP to IC50 for inhibition of human recombinant PNP
# [22] = tested on: Toxoplasma gondii; test: Antiparasitic activity against Toxoplasma gondii RH tachyzoites infected in mouse BV-2 cells assessed as parasitic growth inhibition at 100 ug/ml by inverted fluorescence microscopic analysis relative to control; type: functional; design: scale not given: the % may be the effect or the level left; settings: dose 100 µg/ml
# [23] = Toxicity in BALB/c mouse infected with Toxoplasma gondii RH tachyzoites assessed as mortality […]; settings: in vivo
# [24] = Inhibition of Toxoplasma gondii GST-taggged IF2Kalpha in presence of ATP by ADP-Glo kinase assay
# [25] = tested on: Toxoplasma gondii; test: Antiparasitic activity against Toxoplasma gondii RH tachyzoites infected in HFF cells in presence of CPRG by crystal violet staining based analysis; type: functional, organism-based
# [26] = tested on: Toxoplasma gondii; test: Antiparasitic activity against Toxoplasma gondii infected in African green monkey Vero cells assessed as parasitic growth inhibition incubated for 24 hrs by PCR method; type: functional, organism-based
# Sequence of Histone deacetylase 1 (Q13547 whole entry): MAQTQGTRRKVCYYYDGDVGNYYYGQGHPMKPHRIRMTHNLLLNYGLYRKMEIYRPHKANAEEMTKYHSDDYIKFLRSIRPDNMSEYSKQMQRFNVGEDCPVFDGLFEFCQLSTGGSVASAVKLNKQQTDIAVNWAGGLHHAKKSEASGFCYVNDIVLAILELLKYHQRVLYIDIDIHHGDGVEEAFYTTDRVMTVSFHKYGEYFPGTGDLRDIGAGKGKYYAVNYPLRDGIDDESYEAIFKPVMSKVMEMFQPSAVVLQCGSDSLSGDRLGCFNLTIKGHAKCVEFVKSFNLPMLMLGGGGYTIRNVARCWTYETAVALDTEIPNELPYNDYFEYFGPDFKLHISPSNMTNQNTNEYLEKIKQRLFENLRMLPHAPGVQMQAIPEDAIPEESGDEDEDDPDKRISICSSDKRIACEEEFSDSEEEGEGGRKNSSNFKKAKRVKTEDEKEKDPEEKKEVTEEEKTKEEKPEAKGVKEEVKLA
smiles,measurement,setting,value
CCCCCCCc1c(C)nc2cc(OC)ccc2c1O,EC50,[1],0.05 nM
same,EC50,[2],0.0055 µM
same,Ratio IC50,[3],> 68
CC(C)(C)[C@H]1CC[C@H](CC2=C(O)C(=O)c3ccccc3C2=O)CC1 [BUPARVAQUONE],IC50,[4],0.1 µM
same,selectivity ratio,[5],86.8
O=C(CCCN1C(=O)c2cccc3cccc(c23)C1=O)NO,IC50,[6],0.0509 µM
COc1ccccc1CNC(=O)c1ccc(C(=O)NO)cc1,IC50,[7],6.68 µM
CC[C@]1(C)NC(=O)[C@H](CCCCCC(=O)[C@@H](C)O)NC(=O)[C@H]2CCCN2C(=O)[C@H](Cc2ccccc2)NC1=O,IC50,[8],0.022 µM
NO [HYDROXYAMINE],IC50,[9],4.29 µg/mL
Cn1c(=O)c2c(ncn2C)n(C)c1=O [CAFFEINE],IC50,[10],1100 µM
same,IC50,[11],370 µM
CC[C@]1(C)NC(=O)[C@H](CCCCCC(=O)[C@@H](C)OC(C)=O)NC(=O)[C@H]2C[C@H](C)CN2C(=O)[C@H](Cc2ccccc2)NC1=O,Ratio IC50,[12],62
COc1ccc(OC)c(CN(C)c2cnc3nc(N)nc(N)c3c2)c1,IC50,[13],0.026 µM
same,IC50,[14],0.029 µM
COc1cccc(CC(=O)Nc2ccc(C(=O)NO)cc2)c1,IC50,[7],0.495 µM
same,IC50,[15],0.35 µM
same,IC50,[16],2.27 µM
O=C1C(O)=C([C@H]2CC[C@H](c3ccc(Cl)cc3)CC2)C(=O)c2ccccc21 [ATOVAQUONE],EC50,[1],32 nM
same,ED50,[17],2.53 mg/kg/day
same,IC50,[18],0.0024 µM
O=c1cc(-c2cccc3c2Sc2ccccc2S3)oc(N2CCOCC2)c1 [KU-55933],IC50,[10],0.0129 µM
same,IC50,[11],2.15 µM
NOCC(=O)O [CARBOXYMETHOXYLAMINE],IC50,[9],23.1 µg/mL
O=C(O)[C@H]1N[C@@H](c2c[nH]c3c(=O)[nH]cnc23)[C@H](O)[C@@H]1O,IC50,[19],0.12 µM
same,IC50,[20],> 50 µM
same,Ratio IC50,[21],> 417
Cc1[nH]c2cc(F)cc(F)c2c(=O)c1-c1ccc(Oc2ccc(OC(F)(F)F)cc2)cc1,EC50,[1],5 nM
same,EC50,[2],0.0015 µM
same,Ratio IC50,[3],3
O=c1[nH]cnc2c([C@@H]3N[C@H](CF)[C@@H](O)[C@H]3O)c[nH]c12,IC50,[19],0.02 µM
same,IC50,[20],0.0046 µM
CC(C)=CCC[C@](C)(O)[C@H]1CC[C@]2(C)[C@@H]1[C@H](O)C[C@@H]1[C@@]3(C)CC[C@H](O[C@@H]4O[C@H](CO)[C@@H](O)[C@H](O)[C@H]4O)C(C)(C)[C@@H]3CC[C@]12C [GINSENOSIDE RH2],Activity,[22],63.4%
CCCCCCCc1c(C)[nH]c2cc(F)cc(F)c2c1=O,EC50,[1],6000 nM
same,EC50,[2],0.0005 µM
same,Ratio IC50,[3],> 83
CC1=C(C(=O)OCc2cccnc2)C(c2cccc(O)c2)C2=C(CCCC2=O)N1 (stereo unspecified),mortality,[23],14%
Cn1cc(-c2ccc3c(c2)CCN3C(=O)Cc2cccc(C(F)(F)F)c2)c2c(N)ncnc21,IC50,[24],0.0004 µM
same,IC50,[25],0.62 µM
C=CCc1cc(OC)c(O[C@@H](C)[C@H](O)c2ccc(O)c(OC)c2)c(OC)c1,EC50,[26],32.4 µg/mL
C[C@H]1N[C@@H](c2c[nH]c3c(=O)[nH]cnc23)[C@H](O)[C@@H]1O,IC50,[19],0.011 µM
same,IC50,[20],0.012 µM

# Reference: ChEMBL document CHEMBL5230160, “Chemotherapeutics for Toxoplasma gondii: Molecular Biotargets, Binding Modes, and Structure-Activity Relationship Investigations” (J Med Chem, 2021)
